Laboratory results: ChEMBL document CHEMBL1127145, “Syntheses of novel 1-aminocyclopropane-1-carboxylic acid (ACC)-containing -lactams” (Bioorg Med Chem Lett, 1993)
Activity calls are given as the source filed them. The rule behind the calls is not given here.

Molecular target: Beta-lactamase TEM (Escherichia coli) (UniProt P62593)
Experiment: Inhibitory activity towards beta-lactamase enzyme at 50 mM concentration or higher; Weak inhibitor

Chain of Beta-lactamase TEM (Escherichia coli) (P62593 whole entry): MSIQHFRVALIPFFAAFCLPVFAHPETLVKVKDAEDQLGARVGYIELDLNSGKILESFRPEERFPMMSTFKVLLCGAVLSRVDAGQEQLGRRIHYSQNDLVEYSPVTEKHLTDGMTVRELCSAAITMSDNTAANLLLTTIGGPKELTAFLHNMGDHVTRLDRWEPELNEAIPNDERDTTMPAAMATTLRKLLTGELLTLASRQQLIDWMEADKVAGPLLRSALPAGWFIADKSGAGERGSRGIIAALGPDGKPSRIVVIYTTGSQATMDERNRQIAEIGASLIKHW

SMILES: CC(=O)[C@@H]1[C@H](NC(=O)c2ccccc2)C(=O)N1C1(C(=O)O)CC1
- Activity: inactive
